Measured values: PMC9655717, “New Molecules of Diterpene Origin with Inhibitory Properties toward α-Glucosidase” (International Journal of Molecular Sciences, 2022)
Where two headings read alike, the source gives them in different places.

Molecular target: T1, yeast α-GLy (α-glucosidase, Sigma G0660) (Saccharomyces cerevisiae, UniProt P53341)
T1 construct: purchased Sigma G0660
Test: biochemical
Format: biochemical
Conditions: for IC50: yeast α-glucosidase, 37°C, pH 6.8
Protocol: S1. Materials and Methods […]
glucosidase inhibition assay. α-Glucosidase enzyme inhibition assay was carried out in a 96-well microplate. The method’s principle based on the hydrolyzed reaction of 4-nitrophenyl-α-D-glucopiranoside with α-glucosidase enzyme into yellow 4- […]
p-Nitrophenyl α-D-Glucoside a- Gl ucosidas e α-D-Glucose + p- Nitrophenol α-Glucosidase inhibitory activity assay was performed following the modified method of Pistia Brueggeman and Hollingsworth with slight modification. Quinopimaric […]
concentrations of 256, 64, 16, 4 and 1 µg/mL. In a 96-well plate, a reaction mixture containing 20 μL of phosphate buffer (100 mM; pH 6.8), 20 μL of α-glucosidase (0.3 U/mL, Sigma G0660) (this concentration was determined by a series of α-glucosidase […]
linearity between the enzyme concentration and the absorbance of yellow color mixture after reaction which was approximately 5-fold higher than the back ground and at least […]
concentrations was pre-incubated for 10 min at 37°C. Then 20 μL of […] p-nitrophenyl α-D-glucopyranoside (Sigma N1377) was added to the mixture as a substrate. After further incubation at 37°C for 30 min, the reaction was stopped by adding 80 μL of 0.1 […]
solution were prepared using the phosphate buffer […]; pH 6.8. […]
as a positive control and water as negative control. The yellow color produced was quantitated by colorimetric analysis and reading the absorbance at 410 nm. Each experiment was performed in triplicates, along with appropriate blanks. The solvent DMSO was use as negative control to evaluate its effect on α-glucosidase activity. […]
or substrate in negative control. Back ground was determined by volume of buffer as […]
The % inhibition has been obtained using the formula:
% inhibition = {Absorbance (control) –Absorbance (sample)}/Absorbance (control) IC50 value is defined as the concentration of samples inhibiting 50% of α-glucosidase activity under the stated assay conditions. […]

[1] = IC50 ± SE, α-glucosidase inhibition
[2] = read-out: IC50 ± SE, α-glucosidase inhibition

T1 sequence (P53341 whole entry): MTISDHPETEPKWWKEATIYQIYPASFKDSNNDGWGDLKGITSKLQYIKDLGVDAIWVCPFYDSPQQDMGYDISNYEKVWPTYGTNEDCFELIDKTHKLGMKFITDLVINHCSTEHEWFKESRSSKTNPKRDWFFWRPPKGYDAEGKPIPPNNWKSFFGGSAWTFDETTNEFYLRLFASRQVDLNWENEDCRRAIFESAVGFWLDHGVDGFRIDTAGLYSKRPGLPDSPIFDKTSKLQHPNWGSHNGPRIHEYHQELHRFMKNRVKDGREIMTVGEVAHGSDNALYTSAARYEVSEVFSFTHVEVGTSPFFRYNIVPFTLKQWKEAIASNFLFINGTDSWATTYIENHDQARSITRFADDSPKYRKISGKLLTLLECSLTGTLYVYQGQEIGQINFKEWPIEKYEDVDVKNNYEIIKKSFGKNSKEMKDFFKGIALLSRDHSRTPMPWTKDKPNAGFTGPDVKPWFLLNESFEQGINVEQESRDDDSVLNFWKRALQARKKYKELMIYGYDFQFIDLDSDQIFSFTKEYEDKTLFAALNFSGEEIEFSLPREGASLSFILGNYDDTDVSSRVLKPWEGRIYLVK

Structure (SMILES)	IC50 [1] [µM]	other results
CC(C)C1=C[C@@]23CC[C@@H]4[C@](C)(CCC[C@@]4(C)C(=O)O)[C@H]2C[C@@H]1[C@H]1C(=O)C=CC(=O)[C@H]13 [Compound 1, quinopimaric acid]	59.59 ± 0.18	times more active (potent) than acarbose (ratio of α-GLy IC50 values versus acarbose): three times higher
CC(C)C1=C[C@@]23CC[C@H]4[C@](C)(CO)CCC[C@]4(C)[C@H]2C[C@@H]1[C@@H]1[C@H]3[C@@H](O)CC[C@@H]1O [Compound 2]	> 255	–
COC(=O)[C@]1(C)CCC[C@]2(C)[C@H]3C[C@@H]4[C@H]5[C@@H]6CCC(=O)[C@H]5[C@@]3(CC[C@H]21)C[C@@]4(C(C)C)O6 [Compound 3, 1β,13α-epoxy methyldihydroquinopimarate]	> 255	–
COC(=O)[C@]1(C)CCC[C@]2(C)[C@H]3C[C@@H]4[C@H]5[C@@H]6CCC(=NO)[C@H]5[C@@]3(CC[C@H]21)C[C@@]4(C(C)C)O6 [Compound 4]	> 255	–
COC(=O)[C@]1(C)CCC[C@]2(C)[C@H]3C[C@@H]4[C@H]5[C@@H]6CCC(=NOCCC#N)[C@H]5[C@@]3(CC[C@H]21)C[C@@]4(C(C)C)O6 [Compound 5]	> 255	–
COC(=O)[C@]1(C)CCC[C@]2(C)[C@H]3C[C@H]4C(C(C)C)=C[C@]3(CC[C@H]21)[C@@H]1C(=O)C(=Cc2ccc(OC)cc2)C[C@H](O)[C@@H]14 [Compound 6]	–	IC50 [2]: 1.63 ± 0.006 µM
COC(=O)[C@]1(C)CCC[C@]2(C)[C@H]3C[C@H]4C(C(C)C)=C[C@]3(CC[C@H]21)[C@@H]1C(=O)C(=Cc2ccco2)C[C@H](O)[C@@H]14 [Compound 7]	–	IC50 [2]: 2.5 ± 0.011 µM
CC(C)C1=C[C@@]23CC[C@@H]4[C@](C)(CCC[C@@]4(C)C(=O)O)[C@H]2C[C@@H]1[C@H]1C(=O)CCC(=O)[C@H]13 [Compound 8, 2,3-dihydroquinopimaric acid]	35.6 ± 0.92	–
CC(C)C1=C[C@@]23CC[C@@H]4[C@](C)(CCC[C@@]4(C)C(=O)NCCCCNCCCN)[C@H]2C[C@@H]1[C@H]1C(=O)CCC(=O)[C@H]13 [Compound 9]	–	IC50 [2]: 35.2 ± 0.71 µM
C#CCNC(=O)[C@]1(C)CCC[C@]2(C)[C@H]3C[C@H]4C(C(C)C)=C[C@]3(CC[C@H]21)[C@@H]1C(=O)CCC(=O)[C@@H]14 [Compound 10]	> 255	–
CC(C)C1=C[C@@]23CC[C@@H]4[C@](C)(CCC[C@@]4(C)C(=O)N4CCCNCC4)[C@H]2C[C@@H]1[C@H]1C(=O)CCC(=O)[C@H]13 [Compound 11]	> 255	–
COC(=O)C(C)NC(=O)[C@]1(C)CCC[C@]2(C)[C@H]3C[C@H]4C(C(C)C)=C[C@]3(CC[C@H]21)[C@@H]1C(=O)CCC(=O)[C@@H]14 (some centres unmarked) [Compound 12]	> 255	–
COC(=O)C(CCSC)NC(=O)[C@]1(C)CCC[C@]2(C)[C@H]3C[C@H]4C(C(C)C)=C[C@]3(CC[C@H]21)[C@@H]1C(=O)CCC(=O)[C@@H]14 (some centres unmarked) [Compound 13]	> 255	–
COC(=O)[C@]1(C)CCC[C@]2(C)[C@H]3C[C@H]4C(C(C)C)=C[C@]3(CC[C@H]21)[C@@H]1C(=O)CC[C@H](O)[C@@H]14 [Compound 14]	> 255	–
COC(=O)[C@]1(C)CCC[C@]2(C)[C@H]3C[C@H]4C(C(C)C)=C[C@]3(CC[C@H]21)[C@@H]1C(=O)CC[C@H](OC(C)=O)[C@@H]14 [Compound 15]	> 255	–
COC(=O)[C@]1(C)CCC[C@]2(C)[C@H]3C[C@H]4C(C(C)C)=C[C@]3(CC[C@H]21)[C@@H]1C(=O)CC[C@H](OCCC#N)[C@@H]14 [Compound 16]	> 255	–
COC(=O)[C@]1(C)CCC[C@]2(C)[C@H]3C[C@H]4C(C(C)C)=C[C@]3(CC[C@H]21)[C@@H]1C(=O)CC[C@H](OC(=O)CCC(=O)O)[C@@H]14 [Compound 17]	> 255	–
COC(=O)[C@]1(C)CCC[C@]2(C)[C@H]3C[C@H]4C(C(C)C)=C[C@]3(CC[C@H]21)[C@@H]1C(=O)CC[C@H](OC(=O)CCCC(=O)O)[C@@H]14 [Compound 18]	> 255	–
COC(=O)[C@]1(C)CCC[C@]2(C)[C@H]3C[C@H]4C(C(C)C)=C[C@]3(CC[C@H]21)[C@@H]1C(=O)CC[C@H](OC(=O)c2cccnc2)[C@@H]14 [Compound 19]	> 255	–
COC(=O)[C@]1(C)CCC[C@]2(C)[C@H]3C[C@H]4C(C(C)C)=C[C@]3(CC[C@H]21)[C@@H]1C(=O)CC[C@H](OC(=O)c2ccccc2C(=O)O)[C@@H]14 [Compound 20]	> 255	–

Structure (SMILES)	IC50 [1] [µM]	other results
COC(=O)[C@]1(C)CCC[C@]2(C)[C@H]3C[C@H]4C(C(C)C)=C[C@]3(CC[C@H]21)[C@H]1[C@@H]4[C@@H](O)CC[C@@H]1O [Compound 21]	> 255	–
COC(=O)[C@]1(C)CCC[C@]2(C)[C@H]3C[C@H]4C(C(C)C)=C[C@]3(CC[C@H]21)[C@H]1[C@@H]4[C@@H](OCCC#N)CC[C@@H]1OCCC#N [Compound 22]	> 255	–
COC(=O)[C@]1(C)CCC[C@]2(C)[C@H]3C[C@H]4C(C(C)C)=C[C@]3(CC[C@H]21)[C@H]1[C@@H]4[C@@H](OCCC(N)=NO)CC[C@@H]1OCCC(N)=NO [Compound 23]	> 255	–
COC(=O)[C@]1(C)CCC[C@]2(C)[C@H]3C[C@H]4C(C(C)C)=C[C@]3(CC[C@H]21)[C@H]1[C@@H]4[C@@H](OC(=O)c2cccnc2)CC[C@@H]1OC(=O)c1cccnc1 [Compound 24]	> 255	–
COC(=O)[C@]1(C)CCC[C@]2(C)[C@H]3C[C@@H]4[C@H]5[C@@H]6CC(Br)C(=O)[C@H]5[C@@]3(CC[C@H]21)C[C@@]4(C(C)C)O6 (some centres unmarked) [Compound 25]	> 255	–
COC(=O)[C@]1(C)CCC[C@]2(C)[C@H]3C[C@@H]4[C@H]5[C@@H]6CC(=Cc7ccccc7)C(=O)[C@H]5[C@@]3(CC[C@H]21)C[C@@]4(C(C)C)O6 [Compound 26]	–	IC50 [2]: 13.08 ± 0.01 µM
COC(=O)[C@]1(C)CCC[C@]2(C)[C@H]3C[C@@H]4[C@H]5[C@@H]6CC(=Cc7ccc(OC)cc7)C(=O)[C@H]5[C@@]3(CC[C@H]21)C[C@@]4(C(C)C)O6 [Compound 27]	–	IC50 [2]: > 255 µM
COC(=O)[C@]1(C)CCC[C@]2(C)[C@H]3C[C@@H]4[C@H]5[C@@H]6CC(=Cc7ccc(OC)c(OC)c7)C(=O)[C@H]5[C@@]3(CC[C@H]21)C[C@@]4(C(C)C)O6 [Compound 28]	–	IC50 [2]: 12.7 ± 0.21 µM
COC(=O)[C@]1(C)CCC[C@]2(C)[C@H]3C[C@@H]4[C@H]5[C@@H]6CC(=Cc7ccco7)C(=O)[C@H]5[C@@]3(CC[C@H]21)C[C@@]4(C(C)C)O6 [Compound 29]	–	IC50 [2]: 1.63 ± 0.041 µM
COC(=O)[C@]1(C)CCC[C@]2(C)[C@H]3C[C@@H]4[C@H]5[C@@H]6CC(=Cc7cccnc7)C(=O)[C@H]5[C@@]3(CC[C@H]21)C[C@@]4(C(C)C)O6 [Compound 30]	–	IC50 [2]: 38.8 ± 0.33 µM
COC(=O)[C@]1(C)CCC[C@]2(C)[C@H]3C[C@@H]4[C@H]5[C@@H]6Cc7cn[nH]c7[C@H]5[C@@]3(CC[C@H]21)C[C@@]4(C(C)C)O6 [Compound 31]	> 255	–
COC(=O)[C@]1(C)CCC[C@]2(C)[C@H]3C[C@@H]4[C@H]5[C@@H]6CC7NC(=S)NC7[C@H]5[C@@]3(CC[C@H]21)C[C@@]4(C(C)C)O6 (some centres unmarked) [Compound 32]	9.66 ± 0.77	–
COC(=O)[C@]1(C)CCC[C@]2(C)[C@H]3C[C@@H]4[C@H]5[C@@H]6Cc7c([nH]c8ccccc78)[C@H]5[C@@]3(CC[C@H]21)C[C@@]4(C(C)C)O6 [Compound 33]	65.98 ± 0.03	–
COC(=O)[C@]1(C)CCC[C@]2(C)[C@H]3C[C@H]4C(C(C)C)=C[C@]3(CC[C@H]21)[C@@H]1c2[nH]c3ccccc3c2-c2c([nH]c3ccccc23)[C@@H]14 [Compound 34]	> 255	–
COC(=O)c1c(C)[nH]c2c3c(c(O)cc12)[C@H]1C[C@@H]2[C@@]4(C)CCC[C@@](C)(C(=O)O)[C@@H]4CC[C@@]32C=C1C(C)C [Compound 35]	–	IC50 [2]: 7.95 ± 0.2 µM
COC(=O)c1c(C)[nH]c2c3c(c(O)cc12)[C@H]1C[C@@H]2[C@@]4(C)CCC[C@@](C)(C(=O)OC)[C@@H]4CC[C@@]32C=C1C(C)C [Compound 36]	–	IC50 [2]: 8.94 ± 0.96 µM
COC(=O)c1c(C)[nH]c2c3c(c(OC(C)=O)cc12)[C@H]1C[C@@H]2[C@@]4(C)CCC[C@@](C)(C(=O)OC)[C@@H]4CC[C@@]32C=C1C(C)C [Compound 37]	–	IC50 [2]: 7.28 ± 0.4 µM
COC(=O)[C@]1(C)CCC[C@]2(C)[C@H]3C[C@@H]4[C@H]5[C@@H]6CCC(=O)N[C@H]5[C@@]3(CC[C@H]21)C[C@@]4(C(C)C)O6 [Compound 39]	44.8 ± 0.96	–
CC(C)C1=CC23CCC4C(C)(C(=O)O)CCCC4(C)C2CC1C1=C3C(=O)C=CC1=O (centres unmarked) [Compound 40, 1a,4a-dehydroquinopimaric acid]	7.09 ± 0.12	–
COC(=O)[C@]1(C)CCC[C@@]2(C)[C@H]1CC[C@]13C=C(C(C)C)[C@H](C[C@H]21)C1=C3C(=O)C=CC1=O [Compound 41, 1a,4a-dehydroquinopimaric acid methyl ester]	> 255	–
